# From ChEMBL document CHEMBL1201862, “PubChem BioAssay data set” (2004)
# Activity calls are given as the source filed them.
# Key:
# [1] = A High Throughput Confirmatory Assay used to Identify Novel Compounds that Inhibit Mycobacterium Tuberculosis in the absence of Glycerol.; assay type: functional
# [2] = molecular target: T1, Rac GTPase-activating protein 1 (Homo sapiens, UniProt Q9H0H5); test: MgcRacGAP GTPase-activating activity inhibitors, confirmation, biochemical, ADP Hunter fluorescence, primary and confirmatory (AID 624330); assay type: functional
# T1 sequence (Q9H0H5 whole entry): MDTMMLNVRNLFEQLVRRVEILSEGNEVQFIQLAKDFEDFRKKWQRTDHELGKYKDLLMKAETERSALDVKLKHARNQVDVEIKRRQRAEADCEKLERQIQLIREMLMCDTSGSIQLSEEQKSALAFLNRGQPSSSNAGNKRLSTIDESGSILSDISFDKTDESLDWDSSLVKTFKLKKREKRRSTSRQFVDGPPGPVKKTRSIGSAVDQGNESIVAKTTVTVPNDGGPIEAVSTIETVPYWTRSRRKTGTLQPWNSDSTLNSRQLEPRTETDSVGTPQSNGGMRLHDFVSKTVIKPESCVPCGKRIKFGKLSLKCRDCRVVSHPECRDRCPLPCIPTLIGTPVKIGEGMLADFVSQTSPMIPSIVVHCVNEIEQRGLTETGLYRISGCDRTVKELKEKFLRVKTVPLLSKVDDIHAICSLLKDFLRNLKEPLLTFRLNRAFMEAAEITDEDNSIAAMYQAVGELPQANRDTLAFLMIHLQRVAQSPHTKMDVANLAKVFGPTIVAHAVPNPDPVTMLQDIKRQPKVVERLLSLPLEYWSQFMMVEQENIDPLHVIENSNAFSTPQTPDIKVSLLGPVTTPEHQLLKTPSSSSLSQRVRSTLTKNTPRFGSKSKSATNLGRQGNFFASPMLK
# Mucolipin-3 = Mucolipin-3 (Homo sapiens, UniProt Q8TDD5); test: Dose response cell-based high-throughput screening assay for agonists of the transient receptor potential channel ML3 (TRPML3). [Related pubchem assays: 1526, 1424, 1448 ]; assay type: functional
# Mucolipin-3, sequence (Q8TDD5 whole entry): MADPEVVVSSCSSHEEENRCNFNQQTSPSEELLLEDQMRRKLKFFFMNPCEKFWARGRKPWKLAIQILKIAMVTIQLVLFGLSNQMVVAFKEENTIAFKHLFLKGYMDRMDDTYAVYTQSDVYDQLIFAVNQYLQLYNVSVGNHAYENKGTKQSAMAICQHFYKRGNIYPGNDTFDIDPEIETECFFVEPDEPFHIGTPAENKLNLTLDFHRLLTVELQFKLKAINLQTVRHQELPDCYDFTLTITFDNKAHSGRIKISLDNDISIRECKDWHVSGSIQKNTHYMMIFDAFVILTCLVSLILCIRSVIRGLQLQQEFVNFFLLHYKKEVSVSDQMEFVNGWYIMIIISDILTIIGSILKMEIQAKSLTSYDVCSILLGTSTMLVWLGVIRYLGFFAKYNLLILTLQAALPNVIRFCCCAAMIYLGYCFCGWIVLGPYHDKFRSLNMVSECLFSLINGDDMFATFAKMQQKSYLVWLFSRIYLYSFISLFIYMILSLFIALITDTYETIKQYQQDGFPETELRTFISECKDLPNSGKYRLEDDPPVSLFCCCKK
# Ion channel NompC = Ion channel NompC (Danio rerio, UniProt Q7T1G6); test: Fluorescence counterscreen assay for TRPML3 agonists: dose response cell-based high-throughput screening assay to identify agonists of the transient receptor potential channel N1 (TRPN1). [Related pubchem assays: 1526, 1424, 1448 ]; assay type: functional
# Ion channel NompC, sequence (Q7T1G6 whole entry): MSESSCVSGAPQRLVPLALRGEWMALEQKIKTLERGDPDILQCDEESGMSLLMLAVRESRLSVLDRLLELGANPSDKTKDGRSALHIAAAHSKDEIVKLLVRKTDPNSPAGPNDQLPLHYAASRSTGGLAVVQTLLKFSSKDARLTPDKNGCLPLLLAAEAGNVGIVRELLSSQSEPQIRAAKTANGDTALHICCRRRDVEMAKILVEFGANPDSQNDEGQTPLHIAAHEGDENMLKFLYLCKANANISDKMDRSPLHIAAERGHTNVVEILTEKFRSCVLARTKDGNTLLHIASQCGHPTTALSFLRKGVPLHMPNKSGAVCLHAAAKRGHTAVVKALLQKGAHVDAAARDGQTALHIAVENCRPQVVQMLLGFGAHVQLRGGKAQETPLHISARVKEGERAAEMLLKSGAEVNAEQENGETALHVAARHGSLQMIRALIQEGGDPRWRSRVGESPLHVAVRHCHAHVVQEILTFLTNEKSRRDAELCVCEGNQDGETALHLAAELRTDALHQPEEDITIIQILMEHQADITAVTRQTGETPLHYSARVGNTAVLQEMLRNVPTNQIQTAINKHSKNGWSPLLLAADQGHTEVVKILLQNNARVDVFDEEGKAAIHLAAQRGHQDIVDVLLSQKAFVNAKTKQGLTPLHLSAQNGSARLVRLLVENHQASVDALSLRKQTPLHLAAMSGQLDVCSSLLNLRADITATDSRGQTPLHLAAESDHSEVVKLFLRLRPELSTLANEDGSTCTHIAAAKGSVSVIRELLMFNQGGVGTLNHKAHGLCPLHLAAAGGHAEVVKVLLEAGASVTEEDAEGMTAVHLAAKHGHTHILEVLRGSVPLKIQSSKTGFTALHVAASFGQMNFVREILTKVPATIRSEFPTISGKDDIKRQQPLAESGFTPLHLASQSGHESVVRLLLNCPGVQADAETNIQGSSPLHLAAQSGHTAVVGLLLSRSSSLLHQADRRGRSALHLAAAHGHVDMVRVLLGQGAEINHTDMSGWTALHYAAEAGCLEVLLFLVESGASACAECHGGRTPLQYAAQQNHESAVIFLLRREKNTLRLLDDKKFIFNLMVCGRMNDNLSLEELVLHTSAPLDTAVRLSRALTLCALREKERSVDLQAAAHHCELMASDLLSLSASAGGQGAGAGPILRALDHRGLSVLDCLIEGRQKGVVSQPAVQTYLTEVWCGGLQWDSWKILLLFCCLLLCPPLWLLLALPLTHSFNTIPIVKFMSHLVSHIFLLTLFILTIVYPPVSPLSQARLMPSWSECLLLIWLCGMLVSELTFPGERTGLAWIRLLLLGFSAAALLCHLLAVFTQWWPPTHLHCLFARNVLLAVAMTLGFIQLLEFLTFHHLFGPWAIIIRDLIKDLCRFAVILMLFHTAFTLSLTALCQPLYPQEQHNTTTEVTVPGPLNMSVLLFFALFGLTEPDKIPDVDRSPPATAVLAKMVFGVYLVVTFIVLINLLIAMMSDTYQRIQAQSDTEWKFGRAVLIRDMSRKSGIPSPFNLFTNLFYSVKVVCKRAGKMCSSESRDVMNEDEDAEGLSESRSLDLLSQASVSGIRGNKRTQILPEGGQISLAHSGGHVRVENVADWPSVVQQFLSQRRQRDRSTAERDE
# [3] = molecular target: T2, Heat shock factor protein 1 (Mus musculus, UniProt P38532); test: HSF1 potentiators in luciferase reporter cells, confirmation, cell-based, NIH3T3, luminescence, dose retest (AID 435004); assay type: functional;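 note: stress induced by proteasome inhibitor MG132 added 30 min after compound; luciferase reporter driven by HSF1 response element in NIH3T3 cells; actives raise luminescence as potentiators of the MG132 stress response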
# T2 sequence (P38532 whole entry): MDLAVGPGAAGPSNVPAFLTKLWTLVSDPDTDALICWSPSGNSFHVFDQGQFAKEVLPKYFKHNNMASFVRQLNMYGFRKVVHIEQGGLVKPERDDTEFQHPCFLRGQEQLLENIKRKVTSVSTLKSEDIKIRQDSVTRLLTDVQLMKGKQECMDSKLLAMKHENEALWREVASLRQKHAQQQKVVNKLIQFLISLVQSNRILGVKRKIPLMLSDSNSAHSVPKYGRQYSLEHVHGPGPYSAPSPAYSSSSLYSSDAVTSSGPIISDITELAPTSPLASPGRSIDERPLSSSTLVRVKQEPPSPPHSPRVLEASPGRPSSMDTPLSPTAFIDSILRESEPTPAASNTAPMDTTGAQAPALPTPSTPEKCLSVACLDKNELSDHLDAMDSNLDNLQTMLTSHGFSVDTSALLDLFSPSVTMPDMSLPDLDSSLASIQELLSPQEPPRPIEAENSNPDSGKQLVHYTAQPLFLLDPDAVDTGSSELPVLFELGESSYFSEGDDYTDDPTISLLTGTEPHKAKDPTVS
# [4] = molecular target: T3, Neuropeptide Y receptor type 2 (Homo sapiens, UniProt P49146); test: NPY-Y2 antagonist potency, selectivity check, dose response, counter-screen for NPY-Y1 antagonist project, cell-based (AID 1278); assay type: functional
# T3 sequence (P49146 whole entry): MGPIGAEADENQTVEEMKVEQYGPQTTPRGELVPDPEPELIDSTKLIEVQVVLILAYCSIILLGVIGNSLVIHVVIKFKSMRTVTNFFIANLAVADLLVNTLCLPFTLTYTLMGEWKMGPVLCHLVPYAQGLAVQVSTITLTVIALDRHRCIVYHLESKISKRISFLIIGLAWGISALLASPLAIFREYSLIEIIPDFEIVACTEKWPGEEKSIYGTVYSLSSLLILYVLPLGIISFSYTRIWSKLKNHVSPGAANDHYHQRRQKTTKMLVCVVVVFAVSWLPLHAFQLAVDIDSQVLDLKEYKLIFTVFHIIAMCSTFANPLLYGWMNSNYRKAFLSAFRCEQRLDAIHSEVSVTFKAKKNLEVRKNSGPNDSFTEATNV
# [5] = molecular target: T4, Neuropeptide Y receptor type 1 (Homo sapiens, UniProt P25929); test: NPY-Y1 receptor antagonist potency, dose response, cell-based (AID 1277); assay type: functional
# T4 sequence (P25929 whole entry): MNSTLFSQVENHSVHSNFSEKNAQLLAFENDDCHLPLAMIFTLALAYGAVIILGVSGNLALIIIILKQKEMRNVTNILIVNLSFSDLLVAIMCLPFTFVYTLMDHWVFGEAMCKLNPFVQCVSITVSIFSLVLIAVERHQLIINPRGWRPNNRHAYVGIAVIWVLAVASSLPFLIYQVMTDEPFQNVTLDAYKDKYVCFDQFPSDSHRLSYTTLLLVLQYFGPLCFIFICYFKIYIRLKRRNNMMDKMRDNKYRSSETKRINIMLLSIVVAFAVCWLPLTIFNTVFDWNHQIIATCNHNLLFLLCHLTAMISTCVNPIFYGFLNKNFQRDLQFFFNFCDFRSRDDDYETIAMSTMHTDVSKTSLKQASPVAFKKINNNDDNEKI
# [6] = inhibitors of intracellular T. cruzi replication, confirmation, NIH3T3 host cells, beta-gal luminescence (AID 2044); assay type: functional, cell-based;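 note: intracellular parasites grown in NIH/3T3 mouse fibroblasts as host cells; luminescent beta-galactosidase reporter signal from transgenic T. cruzi replicating inside host cells; inhibitors lower the luminescence signal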
# [7] = molecular target: T5, Calpain-2 catalytic subunit (Sus scrofa, UniProt P43367); test: pig calpain II inhibitor potency, dose response, biochemical, fluorogenic peptide substrate (AID 1420); assay type: functional
# T5 sequence (P43367 whole entry): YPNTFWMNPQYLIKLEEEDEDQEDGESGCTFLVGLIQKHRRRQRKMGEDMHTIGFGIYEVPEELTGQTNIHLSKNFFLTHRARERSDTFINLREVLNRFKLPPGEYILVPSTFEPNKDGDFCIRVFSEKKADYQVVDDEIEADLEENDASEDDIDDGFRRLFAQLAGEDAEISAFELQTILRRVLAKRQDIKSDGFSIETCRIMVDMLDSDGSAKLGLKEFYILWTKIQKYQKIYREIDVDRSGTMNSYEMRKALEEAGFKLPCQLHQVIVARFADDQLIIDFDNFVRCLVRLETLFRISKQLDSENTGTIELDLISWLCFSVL
# [8] = cytotoxicity toward NIH3T3 fibroblasts, dose response, counter-screen, cell-based, ATP luminescence, mouse fibroblasts (AID 2010); assay type: functional;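 note: cells exposed to compound for about 90 hours before reading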
# [9] = molecular target: Luciferin 4-monooxygenase (Photinus pyralis, UniProt P08659); test: firefly luciferase enzyme inhibitors, dose response, biochemical, luminescence (AID 1891)
# Luciferin 4-monooxygenase, sequence (P08659 whole entry): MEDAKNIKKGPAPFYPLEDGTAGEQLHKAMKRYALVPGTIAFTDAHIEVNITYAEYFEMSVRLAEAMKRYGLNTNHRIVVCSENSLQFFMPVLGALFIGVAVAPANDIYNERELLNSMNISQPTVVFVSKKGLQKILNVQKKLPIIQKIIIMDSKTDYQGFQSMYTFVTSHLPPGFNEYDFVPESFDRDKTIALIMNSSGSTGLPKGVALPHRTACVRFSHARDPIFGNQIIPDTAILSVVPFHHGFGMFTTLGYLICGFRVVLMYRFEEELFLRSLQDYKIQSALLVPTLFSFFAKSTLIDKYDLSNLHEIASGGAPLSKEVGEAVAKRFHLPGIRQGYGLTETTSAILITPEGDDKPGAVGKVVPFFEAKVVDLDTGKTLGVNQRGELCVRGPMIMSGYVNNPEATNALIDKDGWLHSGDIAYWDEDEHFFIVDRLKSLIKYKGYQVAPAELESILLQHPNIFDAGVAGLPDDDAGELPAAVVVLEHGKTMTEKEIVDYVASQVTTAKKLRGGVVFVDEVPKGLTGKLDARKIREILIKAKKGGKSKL
# [10] = Luminescence Cell-Based Dose Confirmation HTS to Identify Inhibitors of Platelet Dense Granule Release. [Related pubchem assays: 1663 (Primary HTS), 1678 (Summary of Project)]; assay type: functional
# [11] = molecular target: Potassium voltage-gated channel subfamily KQT member 2 (Rattus norvegicus, UniProt O88943, W236L); test: KCNQ2 channel potentiators, dose response, mechanism study for KCNQ2 potentiator project, cell-based, automated electrophysiology (AID 2603); assay type: functional
# Potassium voltage-gated channel subfamily KQT member 2, sequence (O88943 whole entry W236L): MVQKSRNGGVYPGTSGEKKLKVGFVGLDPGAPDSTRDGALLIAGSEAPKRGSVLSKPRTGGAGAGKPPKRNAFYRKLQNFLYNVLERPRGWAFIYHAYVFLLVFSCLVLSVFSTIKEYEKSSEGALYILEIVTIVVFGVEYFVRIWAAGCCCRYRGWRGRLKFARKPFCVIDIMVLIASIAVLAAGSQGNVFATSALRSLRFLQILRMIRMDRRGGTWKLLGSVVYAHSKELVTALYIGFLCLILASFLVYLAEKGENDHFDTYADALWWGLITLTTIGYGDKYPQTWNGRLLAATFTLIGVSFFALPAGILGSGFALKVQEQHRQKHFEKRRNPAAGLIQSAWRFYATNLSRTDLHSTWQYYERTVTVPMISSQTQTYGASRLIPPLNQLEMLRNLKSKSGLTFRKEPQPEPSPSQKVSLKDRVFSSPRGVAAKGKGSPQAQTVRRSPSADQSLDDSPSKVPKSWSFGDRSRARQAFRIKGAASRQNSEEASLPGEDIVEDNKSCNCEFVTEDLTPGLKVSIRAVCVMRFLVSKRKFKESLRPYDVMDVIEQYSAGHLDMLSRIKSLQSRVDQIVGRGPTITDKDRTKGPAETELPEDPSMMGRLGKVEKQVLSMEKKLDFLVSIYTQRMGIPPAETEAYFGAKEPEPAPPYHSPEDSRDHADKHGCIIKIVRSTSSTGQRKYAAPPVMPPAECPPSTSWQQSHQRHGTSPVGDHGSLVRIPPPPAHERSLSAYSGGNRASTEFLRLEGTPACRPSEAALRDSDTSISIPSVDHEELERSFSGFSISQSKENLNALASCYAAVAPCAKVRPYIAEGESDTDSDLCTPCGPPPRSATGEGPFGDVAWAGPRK
# [12] = molecular target: Epstein-Barr nuclear antigen 1 (Epstein-Barr virus (strain B95-8) (HHV-4) (Human herpesvirus 4), UniProt P03211); test: EBNA-1 inhibitors, dose response, biochemical, fluorescence polarization, 1536-well (AID 2381); set-up: species or system human gammaherpesvirus 4;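 note: fluorescence polarization of a Cy5 DNA probe bound by EBNA-1 protein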
# Epstein-Barr nuclear antigen 1, sequence (P03211 whole entry): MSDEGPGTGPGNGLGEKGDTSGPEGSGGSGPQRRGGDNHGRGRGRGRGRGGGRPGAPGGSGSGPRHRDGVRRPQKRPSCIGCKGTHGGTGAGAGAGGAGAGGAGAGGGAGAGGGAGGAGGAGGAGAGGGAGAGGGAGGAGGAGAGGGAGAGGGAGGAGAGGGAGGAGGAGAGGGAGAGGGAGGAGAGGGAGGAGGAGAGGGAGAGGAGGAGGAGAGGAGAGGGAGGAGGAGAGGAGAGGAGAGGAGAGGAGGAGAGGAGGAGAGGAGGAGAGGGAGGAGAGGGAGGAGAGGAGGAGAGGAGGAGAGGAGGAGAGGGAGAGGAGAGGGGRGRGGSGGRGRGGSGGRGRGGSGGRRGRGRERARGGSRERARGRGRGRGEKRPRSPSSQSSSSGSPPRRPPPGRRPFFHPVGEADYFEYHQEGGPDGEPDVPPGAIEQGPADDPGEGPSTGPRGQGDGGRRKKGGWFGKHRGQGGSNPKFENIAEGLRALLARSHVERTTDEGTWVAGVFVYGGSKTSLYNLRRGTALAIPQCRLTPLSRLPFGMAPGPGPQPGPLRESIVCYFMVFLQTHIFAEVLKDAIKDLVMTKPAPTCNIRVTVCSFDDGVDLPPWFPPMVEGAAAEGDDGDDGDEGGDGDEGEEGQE
# [13] = molecular target: Lytic switch protein BZLF1 (Epstein-Barr virus (strain B95-8) (HHV-4) (Human herpesvirus 4), UniProt P03206); test: EBV ZTA inhibitors, dose response, counter-screen for EBNA-1 inhibitor project, biochemical, fluorescence polarization, Epstein-Barr virus, 1536-well (AID 2377); set-up: species or system human gammaherpesvirus 4;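 note: fluorescence polarization of Cy5-labelled ZRE DNA probe bound by purified Zta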
# Lytic switch protein BZLF1, sequence (P03206 whole entry): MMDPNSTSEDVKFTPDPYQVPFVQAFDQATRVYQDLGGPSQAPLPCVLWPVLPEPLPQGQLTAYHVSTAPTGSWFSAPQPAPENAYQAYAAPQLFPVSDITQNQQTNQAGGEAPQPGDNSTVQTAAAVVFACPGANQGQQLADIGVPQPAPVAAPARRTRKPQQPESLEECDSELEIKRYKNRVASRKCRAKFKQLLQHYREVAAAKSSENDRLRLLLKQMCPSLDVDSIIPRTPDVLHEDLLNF
# [14] = inhibitors of Bluetongue virus cytopathic effect, confirmation, arbovirus, BSR cells (AID 1250); assay type: functional;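 note: protection from viral cytopathic effect measured as cell viability by ATP luminescence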
# HEK293 [15] = test: NOD1 signaling inhibitors, primary screen, cell-based, luminescence, uHTS (AID 1578); assay type: functional; settings: Homo sapiens
# HEK293 [16] = test: cells; assay type: functional, cell-based; settings: Homo sapiens
# HEK293 [17] = test: cells; assay type: functional, cell-based; settings: Homo sapiens; remark: listed apart in the source
# [18] = Luminescence-based counterscreen assay for KLF5 inhibitors: dose response cell-based high throughput screening assay to identify cytotoxic compounds using the IEC-6 intestinal epithelial cell line. [Related pubchem assays: 1700 (Primary screen.), 1834 (Confirmation screen.), 1858 (Summary AID.), 1905 (Counterscreen.)]; assay type: functional
# [19] = molecular target: Nucleotide-binding oligomerization domain-containing protein 2 (Homo sapiens, UniProt Q9HC29); test: NOD2 signaling inhibitors, cell-based, luminescence, uHTS, HEK293 (AID 1566); assay type: functional
# HEK293 [20] = test: NOD2 signaling inhibitors in MDP-stimulated cells, cell-based, uHTS, luminescence (AID 2001); assay type: functional; settings: Homo sapiens
# HEK293 [21] = test: cells; assay type: functional, cell-based; settings: Homo sapiens; remark: listed apart in the source
# Exodeoxyribonuclease V = Exodeoxyribonuclease V (Escherichia coli (strain K12), UniProt P04993+P07648+P08394); test: E. coli RecBCD inhibitors, dose response, counter-screen for AddAB inhibitor project, absorbance, V66 E. coli, mutant T4 phage (AID 492957); assay type: functional, cell-based, Escherichia coli str. K-12 substr. MG1655
# Nonstructural protein 1 = Nonstructural protein 1 (Influenza A virus, UniProt Q194T2); assay type: functional, Influenza A virus (A/California/07/2009(H1N1))
# Nonstructural protein 1, sequence (Q194T2 whole entry): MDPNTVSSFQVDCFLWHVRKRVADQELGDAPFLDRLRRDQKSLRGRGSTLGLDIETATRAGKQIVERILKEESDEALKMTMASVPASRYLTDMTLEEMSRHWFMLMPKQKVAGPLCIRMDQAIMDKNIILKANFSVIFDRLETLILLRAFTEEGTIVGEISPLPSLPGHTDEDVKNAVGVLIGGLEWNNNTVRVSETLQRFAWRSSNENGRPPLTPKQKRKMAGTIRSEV
# [22] = Counterscreen for AddAB inhibitors: absorbance-based bacterial cell-based high throughput dose response assay for inhibitors of bacterial viability. [Related pubchem assays (depositor defined):AID435030, AID449728, AID449731, AID488942, AID488955, AID488956]; assay type: functional
# INS1 = test: beta cell apoptosis inhibitors, cytokine rescue, dose response, luminescence, retest (AID 449756); assay type: functional, cell-based; settings: Rattus norvegicus;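 note: cell death triggered by IL-1 beta plus TNF-alpha plus IFN-gamma mixture; protective hits raise ATP signal compared with cytokine alone wells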
# [23] = HepG2 cell cytotoxicity, dose response, cytotoxicity control, ATP luminescence, cherry-pick, activator set 2 (AID 1053143); assay type: functional, cell-based
structure (smiles),measurement,setting,value
O=C(NC1CCN(C(=O)N2c3ccccc3Sc3ccccc32)CC1)c1ccccc1F,IC50,[1],> 100 µM (active)
same,IC50,[2],115 µM (active)
O=C(Nc1c(S(=O)(=O)c2ccc(Cl)cc2)csc1Br)c1ccccc1Cl,EC50,Mucolipin-3,> 3.32 µM (active)
same,EC50,Ion channel NompC,> 29.9 µM (not active)
same,EC50,[3],> 260 µM (inactive)
COc1ccc(N(C)S(=O)(=O)c2cccc(C(=O)NCC3CCCCC3)c2)cc1,IC50,[4],> 35 µM (not active)
same,IC50,[5],> 35 µM (not active)
same,EC50,[6],> 30 µM (not active)
same,IC50,[7],14.1 µM (not active)
same,EC50,[8],> 30 µM (not active)
Cc1cc(Cl)c(S(=O)(=O)N2CCN(c3ccccn3)CC2)cc1OCC(=O)NC1CCCCC1,EC50,[9],77.1 µM (active)
same,EC50,[10],> 112 µM (not active)
same,EC50,[11],5.34 µM (active)
CCOc1ccc(NC(=O)CCC(=O)NNC(=O)COc2ccc(C)cc2Br)cc1,IC50,[12],5.52 µM (active)
same,IC50,[13],> 111 µM (not active)
COc1cccc(-c2nc(SCC(=O)Nc3nc(-c4ccccc4)c(C)s3)nc(O)c2C#N)c1,IC50,[14],23.4 µM (active)
Oc1cccc(/C=N/Nc2ccc(Cl)nn2)c1O,EC50,HEK293 [15],> 20 µM (inactive)
same,IC50,HEK293 [16],17.5 µM (active)
same,IC50,HEK293 [17],> 20 µM (inactive)
same,IC50,[18],7.91 µM (active)
same,EC50,[19],> 20 µM (inactive)
same,IC50,HEK293 [20],> 20 µM (inactive)
same,IC50,HEK293 [21],> 20 µM (inactive)
same,IC50,Exodeoxyribonuclease V,> 119 µM (inactive)
same,IC50,Nonstructural protein 1,2.23 µM (active)
same,IC50,[22],> 119 µM (inactive)
same,AC50,INS1,1.76 µM (active)
same,AC50,[23],20.4 µM (active)
